Where two headings read alike, the source gives them in different places. One block for each compound: values may come before it.
Assays:
[1] = mouse
Procedure: (§1) The investigation presented here expected manipulation conditions during all of the sample storage and process periods, which included the stability data from the freeze/defrost, bench-top, autosampler, and long-term stability tests. For all stability studies, fresh QC samples were evaluated by using a freshly prepared standard curve for the measurements. The analyzed conditions were 0, 8, and 24 h at room temperature, 8 h at 4 °C, and 30 days at −70 °C. The concentrations obtained from all of the stability studies were compared with the fresh QC samples, and the percentage of concentration deviation was calculated.

[2] = Stability of the active compounds in mouse plasma under handling and storage conditions; conditions: mice plasma
Procedure: as §1

[3] = Autosampler (4 °C, 8 h), nominal 2.5 μg/mL
[4] = Autosampler (4 °C, 8 h), nominal 5 μg/mL
[5] = Autosampler (4 °C, 8 h), nominal 10 μg/mL
[6] = Long-term (−70 °C, 1 month), nominal 2.5 μg/mL
[7] = Long-term (−70 °C, 1 month), nominal 5 μg/mL
[8] = Long-term (−70 °C, 1 month), nominal 10 μg/mL
[9] = room temperature, 0 h, nominal 2.5 μg/mL
[10] = room temperature, 0 h, nominal 5 μg/mL
[11] = room temperature, 0 h, nominal 10 μg/mL
[12] = room temperature, 8 h, nominal 2.5 μg/mL
[13] = room temperature, 8 h, nominal 5 μg/mL
[14] = room temperature, 8 h, nominal 10 μg/mL
[15] = room temperature, 24 h, nominal 2.5 μg/mL
[16] = room temperature, 24 h, nominal 5 μg/mL
[17] = room temperature, 24 h, nominal 10 μg/mL

Accuracy Bias ([1]; 0 h, 2.5 μg/mL): −0.48%
Observed Concentration ([1]; 0 h, 2.5 μg/mL): 2.49 ± 0.12 µg/mL
Accuracy Bias ([1]; 0 h, 5 μg/mL): 0.39%
Observed Concentration ([1]; 0 h, 5 μg/mL): 5.02 ± 0.08 µg/mL
Accuracy Bias ([1]; 0 h, 10 μg/mL): 0.04%
Observed Concentration ([1]; 0 h, 10 μg/mL): 10.00 ± 0.37 µg/mL
Accuracy Bias ([1]; 1 month, 2.5 μg/mL): −7.05%
Observed Concentration ([1]; 1 month, 2.5 μg/mL): 2.32 ± 0.08 µg/mL
Accuracy Bias ([1]; 1 month, 5 μg/mL): −2.27%
Observed Concentration ([1]; 1 month, 5 μg/mL): 4.89 ± 0.17 µg/mL
Accuracy Bias ([1]; 1 month, 10 μg/mL): −0.46%
Observed Concentration ([1]; 1 month, 10 μg/mL): 9.95 ± 0.38 µg/mL
Accuracy Bias ([1]; 24 h, 2.5 μg/mL): −4.63%
Observed Concentration ([1]; 24 h, 2.5 μg/mL): 2.38 ± 0.08 µg/mL
Accuracy Bias ([1]; 24 h, 5 μg/mL): 0.43%
Observed Concentration ([1]; 24 h, 5 μg/mL): 5.02 ± 0.10 µg/mL
Accuracy Bias ([1]; 24 h, 10 μg/mL): −6.61%
Observed Concentration ([1]; 24 h, 10 μg/mL): 9.34 ± 0.27 µg/mL
Structure (SMILES): COc1cc2ccc(=O)oc2cc1O [Scopoletin, scopoletin]

Accuracy Bias [2, 3]: −2.64%
Observed Concentration [2, 3]: 2.43 ± 0.11 µg/mL
Accuracy Bias [2, 4]: −1.65%
Observed Concentration [2, 4]: 4.92 ± 0.14 µg/mL
Accuracy Bias [2, 5]: −0.65%
Observed Concentration [2, 5]: 9.93 ± 0.62 µg/mL
Accuracy Bias [2, 6]: −7.61%
Observed Concentration [2, 6]: 2.31 ± 0.09 µg/mL
Accuracy Bias [2, 7]: −2.90%
Observed Concentration [2, 7]: 4.85 ± 0.18 µg/mL
Accuracy Bias [2, 8]: −3.74%
Observed Concentration [2, 8]: 9.63 ± 0.65 µg/mL
Accuracy Bias [2, 9]: −4.59%
Observed Concentration [2, 9]: 2.39 ± 0.09 µg/mL
Accuracy Bias [2, 10]: −1.48%
Observed Concentration [2, 10]: 4.93 ± 0.11 µg/mL
Accuracy Bias [2, 11]: −0.41%
Observed Concentration [2, 11]: 9.96 ± 0.30 µg/mL
Accuracy Bias [2, 12]: −7.60%
Observed Concentration [2, 12]: 2.31 ± 0.08 µg/mL
Accuracy Bias [2, 13]: −0.86%
Observed Concentration [2, 13]: 4.96 ± 0.14 µg/mL
Accuracy Bias [2, 14]: −1.64%
Observed Concentration [2, 14]: 9.84 ± 0.40 µg/mL
Accuracy Bias [2, 15]: −5.93%
Observed Concentration [2, 15]: 2.35 ± 0.09 µg/mL
Accuracy Bias [2, 16]: −1.73%
Observed Concentration [2, 16]: 4.91 ± 0.17 µg/mL
Accuracy Bias [2, 17]: −4.52%
Observed Concentration [2, 17]: 9.55 ± 0.19 µg/mL
Structure (SMILES): COc1cc2oc(=O)ccc2c(O)c1OC [Tomentin, tomentin]

— article PMC8308911, “Pharmacokinetic Study of Anti-osteoarthritic Compounds of a Standardized Fraction from Sphaeralcea Angustifolia” (Pharmaceuticals, 2021)
